The subject of assay [1] is MEG-01 cells. Nature of the assay: Anchorage independence assay in soft agar. It counts as cell-based, human. The conditions noted are these: 25 μM. As for the experimental part: Anchorage independence of growth in soft agar assay is an assay for detecting malignant transformation of cells. Anchorage independence is given by defects in the cellular adhesion pathways. Anchorage independence is strongly connected with tumorogenicity and invasiveness. Malignant cells form colonies when grown on soft agar. Normal cells cannot grow on soft agar. Agarose (V3121 from Promega, with melting point at 87-89° C. and gelling point at 36-39° C.) was mixed with MEG-01 growth media RPMI1640 1× with 10% FBS and supplements. A bottom layer of 0.5% makes a firm base, then a top layer of 0.3% agarose with media and over the agarose a layer of growth media was added. Cells were grown in 12 wells dishes at 37° C., 5% CO2, 90% humidity in a VWR incubator. […] This modified image was then transformed into a default threshold image and then colonies were gated and measured.
Referring to FIGS. 2-4, anchorage independence assay in soft agar ([…] and 0.3% top layer agar, with complete MEG-01 cells, growth media) is illustrated. […] The area of each colony was measured using the software NIH Image version 1.63. First the background was subtracted from a gray binary image, then default threshold was applied and then colonies were measured by appropriate gating. 85 colonies from 30 images were measured. […]

Assay [2] deals with fibrinogen receptor expression on MEG-01 cells. Briefly: Fibrinogen-Alexa Fluor 488 binding to MEG-01 cells. Type of assay: cell-based, human. The conditions noted are these: 10 μM. As for the experimental part: RPE conjugated stained cells were collected on FL2H channel and gating on populations was done on FSC and SSC logarithmic modes. The unstained control signal was subtracted from the stained cells signal, in order to measure the staining of the cells without background noise. Similar staining was done for Fibrinogen-Alexa Fluor 488 (300 nM). Cells were collected on FL1H channel and gating on the interest population was done on FSC and SSC logarithmic modes. Again, the unstained control signal was subtracted from the stained cells signal, in order to measure the staining of the cells without background noise.
Regarding FIGS. 16-20, maturation (differentiation) of MEG-01 cells is described. In FIG. 16, RPECD41a (αIIbβ3 expression) staining for DMAT treated cells (gate MEG-01) is depicted, with control untreated unstained—plot A, Control untreated stained (RPE-CD41a)—plot B, DMAT 10 μM—plot D, DMAT 15 μM—plot C, DMAT 20 μM—plot E. For FIG. 17, RPECD41a (αIIbβ3 expression) staining for DMAT, TBB and PMA (gate MEG-01) is shown. Control untreated unstained—plot A, control untreated stained—plot B, 10 μM DMAT—plot C, 25 μM TBB—plot D, 1 nM PMA treatments—plot E. FIG. 18 represents total percentage relative fluorescence for RPE-CD41a immunophenotyping. […]

As for `CN(C)c1nc2c(Br)c(Br)c(Br)c(Br)c2[nH]1` [DMAT, 2-dimethylamino-4,5,6,7-tetrabromo-1H-benzimidazole], in assay [1] (85 colonies from 30 images, paired t-test p<0.0001), the “colony sizes versus Control untreated” value is recorded as “extremely significant”. Besides, the “colony formation in soft agar” value in assay [1] (observed after one week) was “do not form colonies at all”. Further, the “fibrinogen-Alexa Fluor 488 binding to MEG-01 cells versus untreated controls” value in assay [2] was “bind significantly better fibrinogen-Alexa Fluor 488”.

These data come from US20100048657A1, “CONTROL OF MALIGNANT CELLS PROLIFERATION THROUGH THE INHIBITION OF CASEIN KINASE 2” (CLEVELAND STATE UNIVERSITY, priority 2006, published 2010).
